Assay results taken from the supplement of paper PMC10307832.

Experiments:
Assay in all cases: relative viability (nuclei count vs DMSO), 5 days (fraction); higher = more cells survive
BI-2536 + AZD7762 = compound: CC[C@@H]1C(=O)N(C)c2cnc(Nc3ccc(C(=O)NC4CCN(C)CC4)cc3OC)nc2N1C1CCCC1 [BI-2536] + NC(=O)Nc1cc(-c2cccc(F)c2)sc1C(=O)N[C@H]1CCCNC1 [AZD7762] (partner 0.2 µM)
Outline: (§1)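 A single step with final 0.05% Triton X-100, 1% formaldehyde and 1 ug/ml Hoechst fixed the cells and stained nuclei 5 days after treatment. Lung cancer cell lines in 1536-well plates had been treated by pin tool the day after seeding with one drug alone or a fixed anchor-drug dose plus five library-drug doses (not always all listed) in √10 steps, and nuclei were counted on 4× images. Relative viability is the ratio of nuclei in treated wells to nuclei in vehicle wells, taken as the median of duplicate plates.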

[1] = compound: CC1CC(=O)N(C2=CN=C(N=C2N1C3CCCC3)NC4=C(C=C(C=C4)C(=O)NC5CCN(CC5)C)OC)C [NPK76-II-72-1] + CCNC(=O)c1noc(-c2cc(C(C)C)c(O)cc2O)c1-c1ccc(CN2CCOCC2)cc1 [Luminespib] (partner 0.01 µM)
Outline: as §1

BI-2536 + Pictilisib = compound: CC[C@@H]1C(=O)N(C)c2cnc(Nc3ccc(C(=O)NC4CCN(C)CC4)cc3OC)nc2N1C1CCCC1 [BI-2536] + CS(=O)(=O)N1CCN(Cc2cc3nc(-c4cccc5[nH]ncc45)nc(N4CCOCC4)c3s2)CC1 [Pictilisib] (partner 1 µM)
Outline: as §1

NPK76-II-72-1 + Olaparib = compound: CC1CC(=O)N(C2=CN=C(N=C2N1C3CCCC3)NC4=C(C=C(C=C4)C(=O)NC5CCN(CC5)C)OC)C [NPK76-II-72-1] + O=C(c1cc(Cc2n[nH]c(=O)c3ccccc23)ccc1F)N1CCN(C(=O)C2CC2)CC1 [Olaparib] (partner 8 µM)
Outline: as §1

Row | Cell Line | relative viability (BI-2536 + AZD7762; first compound 0.01 µM) | relative viability (BI-2536 + AZD7762; first compound 0.03162 µM) | relative viability (BI-2536 + AZD7762; first compound 0.1 µM) | relative viability (BI-2536 + AZD7762; first compound 0.3162 µM) | relative viability (BI-2536 + AZD7762; first compound 1 µM) | relative viability ([1]; first compound 0.01 µM) | relative viability ([1]; first compound 0.03162 µM) | relative viability ([1]; first compound 0.1 µM) | relative viability ([1]; first compound 0.3162 µM) | relative viability ([1]; first compound 1 µM) | relative viability (BI-2536 + Pictilisib; first compound 0.01 µM) | relative viability (BI-2536 + Pictilisib; first compound 0.03162 µM) | relative viability (BI-2536 + Pictilisib; first compound 0.1 µM) | relative viability (BI-2536 + Pictilisib; first compound 0.3162 µM) | relative viability (BI-2536 + Pictilisib; first compound 1 µM) | relative viability (NPK76-II-72-1 + Olaparib; first compound 0.01 µM) | relative viability (NPK76-II-72-1 + Olaparib; first compound 0.03162 µM) | relative viability (NPK76-II-72-1 + Olaparib; first compound 0.1 µM) | relative viability (NPK76-II-72-1 + Olaparib; first compound 0.3162 µM) | relative viability (NPK76-II-72-1 + Olaparib; first compound 1 µM)
1 | H3255 | 0.951 | 0.728 | 0.66 | 0.228 | 0.298 | 0.871 | 0.76 | 0.55 | 0.675 | 0.891 | 0.503 | 0.503 | 0.305 | 0.176 | 0.182 | 0.531 | 0.552 | 0.561 | 0.483 | 0.592
2 | NCI-H1437 | 1.01 | 0.892 | 1.03 | 0.141 | 0.163 | 1.03 | 1.13 | 1.09 | 1.03 | 1.08 | 0.428 | 0.427 | 0.397 | 0.098 | 0.099 | 0.626 | 0.666 | 0.613 | 0.624 | 0.624
3 | LU99A | 0.309 | 0.334 | 0.111 | 0.145 | 0.102 | 0.261 | 0.212 | 0.304 | 0.238 | 0.278 | 0.308 | 0.301 | 0.14 | 0.128 | 0.138 | 0.259 | 0.244 | 0.297 | 0.253 | 0.285
4 | HCC-827 | 0.234 | 0.217 | 0.186 | 0.182 | 0.14 | 0.602 | 0.619 | 0.447 | 0.879 | 0.702 | 0.917 | 1.02 | 0.976 | 0.533 | 0.339 | 0.615 | 0.649 | 0.66 | 0.608 | 0.619
5 | LK-2 | 0.463 | 0.5 | 0.121 | 0.0816 | 0.091 | 0.183 | 0.214 | 0.215 | 0.191 | 0.191 | 0.569 | 0.389 | 0.375 | 0.196 | 0.297 | 0.775 | 0.716 | 0.679 | 0.565 | 0.725
6 | BEN | 0.67 | 0.711 | 0.521 | 0.419 | 0.396 | 0.326 | 0.332 | 0.325 | 0.403 | 0.329 | 0.574 | 0.48 | 0.389 | 0.235 | 0.209 | 1.01 | 1.14 | 1.04 | 1.03 | 1
7 | NCI-H23 | 0.236 | 0.236 | 0.127 | 0.12 | 0.088 | 0.237 | 0.209 | 0.228 | 0.228 | 0.201 | 0.424 | 0.272 | 0.169 | 0.139 | 0.14 | 0.228 | 0.29 | 0.316 | 0.255 | 0.354
8 | NCI-H1395 | 0.382 | 0.348 | 0.319 | 0.351 | 0.325 | 0.774 | 0.76 | 0.678 | 0.709 | 0.863 | 0.622 | 0.524 | 0.747 | 0.339 | 0.357 | 0.459 | 0.45 | 0.493 | 0.477 | 0.466
